# Measured values as given in BindingDB's records for aid1799744 (Csar, 2012).
# Target: Mitogen-activated protein kinase 1 (Homo sapiens, UniProt P28482)
# Assay: Assay 1
# Sequence of Mitogen-activated protein kinase 1 (P28482 whole entry): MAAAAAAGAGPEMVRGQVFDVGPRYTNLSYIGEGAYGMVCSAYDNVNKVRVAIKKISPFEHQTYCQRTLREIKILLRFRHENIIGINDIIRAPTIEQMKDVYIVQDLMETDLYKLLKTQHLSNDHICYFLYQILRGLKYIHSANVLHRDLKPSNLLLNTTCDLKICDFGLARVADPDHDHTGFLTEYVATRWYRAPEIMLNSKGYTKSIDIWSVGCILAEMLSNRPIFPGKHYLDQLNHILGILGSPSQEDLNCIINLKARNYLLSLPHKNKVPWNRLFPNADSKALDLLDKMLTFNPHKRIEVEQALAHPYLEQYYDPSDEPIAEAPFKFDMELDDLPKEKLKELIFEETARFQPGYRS
row,Ki [µM],Compound
1,0.009,Cc1[nH]c(C(=O)N[C@H](CO)c2cccc(Cl)c2)c(C)c1-c1ccnc(Nc2ccc(F)cc2Cl)n1 [erk000700]
2,0.038,CC[C@@H](COC(=O)[C@H](C)N)Nc1ncc(C)c(-c2c[nH]c(C(=O)N[C@H](COC(=O)[C@H](C)N)c3cccc(Cl)c3)c2)n1 [erk000717]
3,0.004,Cc1cccc([C@@H](CO)NC(=O)c2cc(-c3nc(NOCC(F)(F)F)ncc3C)c[nH]2)c1 [erk000625]
4,0.004,Cc1ccnc(Nc2ncc(C)c(-c3c[nH]c(C(=O)N[C@H](CO)c4ccccc4)c3)n2)c1 [erk000518]
5,0.079,O=C(NCc1ccncc1)c1cc(-c2n[nH]cc2-c2cc(Cl)cc(Cl)c2)c[nH]1 [erk000114]
6,0.065,CC1CCN(c2nc(Nc3cc(C4CC4)n[nH]3)c3ccccc3n2)CC1 [erk000284]
7,0.002,Cc1cnc(Nc2ccc(OC(F)(F)F)cc2)nc1-c1c[nH]c(C(=O)N[C@H](CO)c2ccccc2)c1 [erk000447]
8,0.008,Cc1cnc(NC2CCOCC2)nc1-c1c[nH]c(C(=O)N[C@H](CO)c2cccc(Cl)c2)c1 [erk000584]
9,0.006,Cc1cnc(N[C@@H](C)C(C)C)nc1-c1c[nH]c(C(=O)N[C@H](CO)c2cccc(Cl)c2)c1 [erk000605]
10,0.776,CNc1ncc(C)c(-c2c[nH]c(C(=O)NCc3ccccc3)c2)n1 [erk000045]
11,0.008,Cc1cccc([C@@H](CO)NC(=O)c2cc(-c3nc(Nc4cccc(F)c4C)ncc3C)c[nH]2)c1 [erk000601]
12,0.018,CC[C@@H](CO)Nc1cc(-c2c[nH]c(C(=O)N[C@H](CO)c3cccc(Cl)c3)c2)ncn1 [erk000673]
13,0.417,O=C(N[C@H](CO)c1ccccc1)c1cc(-c2nc(Nc3ccccc3)ncc2C2CC2)c[nH]1 [erk000434]
14,0.003,Cc1cnc(Nc2cc(Cl)cc(Cl)c2)nc1-c1c[nH]c(C(=O)N[C@H](CO)c2ccccc2)c1 [erk000559]
15,0.005,CSCC[C@@H](CO)Nc1ncc(C)c(-c2c[nH]c(C(=O)N[C@H](CO)c3ccccc3)c2)n1 [erk000552]
16,0.004,CCCONc1ncc(C)c(-c2c[nH]c(C(=O)N[C@H](CO)c3cccc(Cl)c3)c2)n1 [erk000615]
17,0.174,CCN(CC)CCOc1ccc(Nc2ncc3cc(-c4c(Cl)cccc4Cl)c(=O)n(C)c3n2)cc1 [erk000225]
18,0.014,Cc1cnc(N[C@H](CO)C(C)C)nc1-c1c[nH]c(C(=O)N[C@H](CO)c2ccccc2)c1 [erk000488]
19,0.004,Cc1cnc(Nc2ccccc2)nc1-c1c[nH]c(C(=O)N[C@H](CO)c2ccccc2)c1 [erk000040]
20,0.01,Cc1cnc(NOC(C)C)nc1-c1c[nH]c(C(=O)N[C@H](CO)c2ccccc2)c1 [erk000494]
21,0.525,CC[C@@H](COC(=O)[C@H](CC(C)C)NC)Nc1ncc(C)c(-c2c[nH]c(C(=O)N[C@H](COC(=O)[C@H](CC(C)C)NC)c3cccc(Cl)c3)c2)n1 [erk000719]
22,0.251,CCN(C)C(=O)c1cc(-c2[nH]ncc2-c2ccc(F)c(Cl)c2)c[nH]1 [erk000142]
23,0.191,Cc1cnc(NOCc2ccccc2)nc1-c1c[nH]c(C(=O)N[C@H](CO)c2ccccc2)c1 [erk000649]
24,0.191,NCc1ccc(-c2cn[nH]c2-c2c[nH]c(C(=O)NCc3ccc4c(c3)CCO4)c2)cc1C(F)(F)F [erk000282]
25,0.417,CC[C@@H](COP(=O)(O)O)Nc1ncc(C)c(-c2c[nH]c(C(=O)N[C@H](CO)c3cccc(Cl)c3)c2)n1 [erk000722]

row,Ki [µM],Compound
1,0.029,CONc1ncc(C)c(-c2c[nH]c(C(=O)N[C@H](CO)c3ccccc3)c2)n1 [erk000493]
2,0.018,Cc1cnc(NOCCO)nc1-c1c[nH]c(C(=O)N[C@H](CO)c2ccccc2)c1 [erk000504]
3,0.02,Cc1cnc(-c2ccccc2)nc1-c1c[nH]c(C(=O)N[C@H](CO)c2ccccc2)c1 [erk000501]
4,0.117,CC[C@@H](COC(=O)CCC(=O)O)Nc1ncc(C)c(-c2c[nH]c(C(=O)N[C@H](COC(=O)CCC(=O)O)c3cccc(Cl)c3)c2)n1 [erk000713]
5,0.002,Cc1cccc(Nc2ncc(C)c(-c3c[nH]c(C(=O)N[C@H](CO)c4cccc(Cl)c4)c3)n2)n1 [erk000619]
6,0.052,CCNc1ncc(C)c(-c2c[nH]c(C(=O)NCc3cccc(OC)c3)c2)n1 [erk000476]
7,0.012,Cc1cccc([C@@H](CO)NC(=O)c2cc(-c3nc(NC4CCCCC4)ncc3C)c[nH]2)c1 [erk000642]
8,0.324,Nc1nccc(-c2c[nH]c(C(=O)N[C@H](CO)c3ccccc3)c2)n1 [erk000067]
9,0.004,CCNc1ncc(C)c(-c2c[nH]c(C(=O)N[C@H](CO)c3cccc(Cl)c3)c2)n1 [erk000635]
10,0.158,CC[C@@H](COC(=O)OC(C)C)Nc1ncc(C)c(-c2c[nH]c(C(=O)N[C@H](CO)c3cccc(Cl)c3)c2)n1 [erk000684]
11,0.002,Cc1cnc(Nc2ccc(F)cc2F)nc1-c1c[nH]c(C(=O)N[C@H](CO)c2ccccc2)c1 [erk000658]
12,0.006,CC[C@@H](COC(C)=O)Nc1ncc(C)c(-c2c[nH]c(C(=O)N[C@H](CO)c3cccc(Cl)c3)c2)n1 [erk000666]
13,4.57,CCNc1ncc(C)c(-c2c[nH]c(C(=O)NCc3ccccc3C(F)(F)F)c2)n1 [erk000039]
14,0.027,N#Cc1c(NCCN2CCCCC2)sc(-c2ccnc(Nc3cccc(O)c3)n2)c1-c1cccc(Cl)c1 [erk000594]
15,0.001,Cc1cnc(N[C@H](CO)c2ccccc2)nc1-c1c[nH]c(C(=O)N[C@H](CO)c2ccccc2)c1 [erk000445]
16,0.017,CC[C@@H](COC(=O)COCCOC)Nc1ncc(C)c(-c2c[nH]c(C(=O)N[C@H](CO)c3cccc(Cl)c3)c2)n1 [erk000698]
17,0.01,Cc1cccc([C@@H](CO)NC(=O)c2cc(-c3nc(NOCC(C)C)ncc3C)c[nH]2)c1 [erk000600]
18,0.007,Cc1cnc(NN2CCCC2)nc1-c1c[nH]c(C(=O)N[C@H](CO)c2cccc(Cl)c2)c1 [erk000624]
19,0.007,CCOC(=O)N1CCC(Nc2ncc(Cl)c(-c3c[nH]c(C(=O)N[C@H](CO)c4cccc(Cl)c4)c3)n2)CC1 [erk000703]
20,0.003,CCONc1ncc(C)c(-c2c[nH]c(C(=O)N[C@H](CO)c3cccc(C)c3)c2)n1 [erk000599]
21,0.004,Cc1cnc(Nc2c(F)cccc2F)nc1-c1c[nH]c(C(=O)N[C@H](CO)c2ccccc2)c1 [erk000561]
22,0.2,COc1cccc(Nc2ncc(C)c(-c3c[nH]c(C(=O)N[C@H](CO)c4cccc(C)c4)c3)n2)c1C [erk000535]
23,0.257,Cc1ncc(C)c(-c2c[nH]c(C(=O)N[C@H](CO)c3ccccc3)c2)n1 [erk000502]
24,0.229,Nc1ncc(-c2cc(Cl)cc(Cl)c2)c(-c2c[nH]c(C(=O)N[C@H](CO)c3ccccc3)c2)n1 [erk000031]
25,4.79,Cc1cnc(N)nc1-c1c[nH]c(C(=O)NCc2ccccc2F)c1 [erk000311]

row,Ki [µM],Compound
1,1.29,Cc1ccccc1CNC(=O)c1cc(-c2ccnc(N)n2)c[nH]1 [erk000663]
2,0.004,Cc1cccc([C@@H](CO)NC(=O)c2cc(-c3nc(N[C@H]4CCOC4)ncc3C)c[nH]2)c1 [erk000660]
3,0.001,Cc1cccc([C@@H](CO)NC(=O)c2cc(-c3nc(NC(C)C)ncc3C)c[nH]2)c1 [erk000522]
4,1.55,Cc1cnc(N)nc1-c1c[nH]c(C(=O)N[C@@H](CCO)c2ccccc2)c1 [erk000305]
5,0.034,CCn1cc(-c2nc(NCC(F)(F)F)ncc2C)cc1C(=O)N[C@H](CO)c1cccc(Cl)c1 [erk000680]
6,0.003,Cc1cnc(Nc2ccc(OCc3ccccc3)cc2)nc1-c1c[nH]c(C(=O)N[C@H](CO)c2ccccc2)c1 [erk000442]
7,0.048,Cc1cnc(N)nc1-c1c[nH]c(C(=O)NCc2ccc(F)c(F)c2)c1 [erk000286]
8,0.059,CNc1ncc(C)c(-c2c[nH]c(C(=O)N[C@H](CO)c3ccccc3)c2)n1 [erk000046]
9,0.002,O=C(N[C@H](CO)c1cccc(Cl)c1)c1cc(-c2ncnc(Nc3ccccc3)n2)c[nH]1 [erk000671]
10,0.006,Cc1cnc(NC2CCC(C)CC2)nc1-c1c[nH]c(C(=O)N[C@H](CO)c2ccccc2)c1 (stereo partly specified) [erk000553]
11,0.003,Cc1cnc(Nc2cccc([N+](=O)[O-])c2)nc1-c1c[nH]c(C(=O)N[C@H](CO)c2ccccc2)c1 [erk000565]
12,0.071,Cc1cnc(Nc2ccccn2)nc1-c1c[nH]c(C(=O)N[C@H](CO)c2cccc(Cl)c2)c1 [erk000611]
13,0.001,Cc1cnc(Nc2cccc(C)c2C)nc1-c1c[nH]c(C(=O)N[C@H](CO)c2cccc(Cl)c2)c1 [erk000526]
14,0.257,CC[C@@H](COC(=O)CCC(=O)N1CCOCC1)Nc1ncc(C)c(-c2c[nH]c(C(=O)N[C@H](COC(=O)CCC(=O)N3CCOCC3)c3cccc(Cl)c3)c2)n1 [erk000718]
15,0.141,Cc1cnc(N)nc1-c1c[nH]c(C(=O)NCc2ccc3c(c2)OCO3)c1 [erk000066]
16,0.003,Cc1cnc(NCC(C)C)nc1-c1c[nH]c(C(=O)N[C@H](CO)c2ccccc2)c1 [erk000448]
17,0.025,Cc1cnc(NC#N)nc1-c1c[nH]c(C(=O)N[C@H](CO)c2ccccc2)c1 [erk000503]
18,0.006,Cc1cnc(N[C@@H](C)CO)nc1-c1cc(C(=O)N[C@H](CO)c2ccccc2)n(C)c1 [erk000706]
19,0.151,CC[C@@H](COC(=O)C(C)C)Nc1ncc(Cl)c(-c2c[nH]c(C(=O)N[C@H](COC(=O)C(C)C)c3ccccc3)c2)n1 [erk000696]
20,0.071,Cc1cnc(NC2CCCCC2)nc1-c1c[nH]c(C(=O)NCc2ccc(F)c(F)c2)c1 [erk000310]
21,1,CCNc1ncc(C)c(-c2c[nH]c(C(=O)N[C@H](C(=O)OC)c3ccccc3)c2)n1 [erk000470]
22,0.2,CC[C@@H](COC(=O)C(C)(C)N)Nc1ncc(C)c(-c2c[nH]c(C(=O)N[C@H](COC(=O)C(C)(C)N)c3cccc(Cl)c3)c2)n1 [erk000720]
23,0.003,Cc1cnc(NCC(C)C)nc1-c1c[nH]c(C(=O)N[C@H](CO)c2cccc(Cl)c2)c1 [erk000525]
24,0.02,Cc1cnc(NN2CCN(C)CC2)nc1-c1c[nH]c(C(=O)N[C@H](CO)c2cccc(Cl)c2)c1 [erk000641]
25,0.11,Cc1cnc(Nc2c(C)cccc2Cl)nc1-c1c[nH]c(C(=O)N[C@H](CO)c2ccccc2)c1 [erk000575]

row,Compound,Ki [µM]
1,CCOP(=O)(OCC)OC[C@H](CC)Nc1ncc(C)c(-c2c[nH]c(C(=O)N[C@H](COP(=O)(OCC)OCC)c3cccc(Cl)c3)c2)n1 [erk000676],1.07
